Results: patent publication US20250352608A1, “POLYPEPTIDES HAVING ANTI-INFLAMMATORY EFFECTS AND USES THEREOF” (OneSkin, Inc., priority 2020, published 2025)
Entries after “also recorded” stand apart in the source; their conditions may differ. Blank lines part the entries; values can stand above or below the sequence they belong to. Ends that are not written are not given here.

How the values were obtained:
[1] = test system: pAkt S473; assay: Akt S473 phosphorylation western blot in skin equivalents; assay type: cell-based, human; conditions: 1p M, 5 days
Protocol: (§1) In order to shed light into the mechanism of action of Peptide 14 and similar Peptide 13, Akt S473 phosphorylation (FIG. 8, panel A), senescence associated β-galactosidase staining (FIG. 8, panel B), as well as mRNA expression (FIG. 8, panel C) were investigated. For Akt S473 phosphorylation analysis using western blotting, human primary fibroblasts and keratinocytes were used. These cells were used to build human skin equivalents, which were kept in a 5% CO2, 37° C. and 95% humidity atmosphere air liquid interface. Then, skin equivalents were treated with 1p M of either Peptide 14 or Peptide 13 for 5 days, and protein analysis was performed on the skin equivalents. Protein was isolated and quantified. Equal amounts of protein were loaded in polyacrylamide gels and transferred into a nitrocellulose membrane. […] Relative pAkt S473/GAPDH signal was compared between treated and non-treated samples. For senescence associated B-galactosidase staining experiments, fibroblasts were used. […] Total RNA was isolated, samples were reverse transcribed, and mRNA expression of GAPDH, sirtuin 6 (SIRT6), BLM, and exonuclease 1 (EXO1) genes were determined using qPCR. […] CT values were analyzed using the 2^−ΔΔCt method. […] Data was analyzed using a T-test. Statistical significance was determined as p values equal or lower than 0.05 (FIG. 8).

[2] = test system: fibroblasts; assay: SA B-galactosidase staining after UVB (Example 8); assay type: cell-based, human; conditions: 48 hours after 2 x 0.05 J/cm^2
Protocol: as §1

[3] = test system: human skin equivalents (donors); assay: Histology score of human skin equivalents (Example 16); assay type: cell-based; conditions: 0.01% w/v (or 1 μM), 5 days; control 21.00
Protocol: To test the effect of Peptide 13 and Peptide 14 treatment on human skin models and the skin morphology, human primary fibroblasts and keratinocytes isolated from healthy elder donors were used to build human skin equivalents. The skin equivalents were treated with 0.01% w/v (or 1 μM) of Peptide 13 or Peptide 14 for 5 days. The negative controls were treated with formulation only. After the 5-day culture, the skin equivalents were analyzed for epidermal thickness, which was quantified according to total epidermal area. Quality assessment based several parameters was performed by blind analysts. […] A minimal score of 19 was required for batch use. This score was validated internally and shown to decrease with age/senescence of the skin equivalents or cultured cells. Three independent experiments were performed with three technical replicates. Data were analyzed using a t-test. Statistical significance was determined as p-values equal or lower than 0.05. The statistically significant p-values are noted by * for p<0.05; ** for p<0.01; *** for p<0.001; **** for p<0.0001 between the groups.

[4] = test system: 3D skin equivalent (elder donors); assay: Relative mRNA expression in 3D skin equivalents versus Retinoic Acid; assay type: cell-based, human; conditions: 1p M peptide vs 20 μM Retinoic Acid
Protocol: 3D skin equivalent sections of samples built with cells from elder donors ([…]) were treated with 1p M Peptide 14 or Peptide 13, or 20 μM Retinoic Acid (RA) and assessed for the effect of the various treatments of various markers of senescence, aging, and health.
Data are presented as 2-ddCt normalized to GAPDH and untreated control. *p<0.05. Peptide 13 and Peptide 14-treated samples generally had similar relative mRNA expression levels for p16, BLIMP1, ZYG11B, IL-8, and Ki-67 in the epidermal layer, and for p16, MMP1, HAS2, IL-8, and Ki-67 in the dermal layer. Peptide 13 and Peptide 14-treated samples generally had lower relative mRNA expression levels than RA-treated samples for p16, BLIMP1, ZYG11B, IL-8, in the epidermal layer and for p16, MMP1, IL-8, and Ki-67 in the dermal layer. Peptide 13 and Peptide 14-treated samples generally had higher relative mRNA expression levels than RA-treated samples for Ki-67 in the epidermal layer and for HAS2 for the dermal layer. Peptide 13 and Peptide 14-treated samples had similar relative mRNA expression levels as RA-treated samples for ZIC1 and Ki-67 for dermal layer.

[5] = test system: Human primary fibroblasts isolated from 3 healthy chronologically aged (elder) donors; assay: 3-week exposure: senescence and proliferation; assay type: cell-based; conditions: 3.12 μM, days 7-28
Protocol: Human primary fibroblasts isolated from 3 healthy chronologically aged (elder) donors were used. These cells were cultured in DMEM (Dulbecco's Modified Eagle's Medium) supplemented with 10% v.v. fetal bovine serum (FBS), and 1% v.v. of penicillin/streptomycin solution (1,000 U·mL-1). Cells were kept in a 5% CO2, 37° C. and 95% humidity atmosphere. After expansion, these cells were seeded in T-75 flasks (250,000 cells per flask) and, 6 hours after plating, were incubated for 3 weeks (21 days) with Peptide 14 at 3.12 μM. A negative control comprised untreated cells, which received vehicle only. Day 0 was defined as the day cells started to be treated with Peptide 14. No Peptide 14 treatment was performed between days 21 and 28. Weekly, cellular senescence was assessed according to senescence associated β-galactosidase staining levels. Data was normalized to untreated group and plotted (FIG. 4, panel A). Cellular proliferation was also determined weekly. At days 7, 14, 21, and 28, cells were trypsinized and counted (FIG. 4, panel B). After counting, 250,000 cells were plated in new T-75 flasks. Three independent experiments (biological replicates) including three technical replicates were performed. Data was analyzed using T-test. Statistical significance was determined as p values equal or lower than 0.05.

[6] = test system: peripheral blood mononuclear cells (PBMCs); assay: PBMC viability / toxicity (MTT); assay type: cell-based, human; conditions: 1.56 μM to 150 μM
Protocol: T cells may be involved in inflammation of various skin disorders. […] This study was approved by an IRB board. PBMCs were obtained from healthy volunteers. After isolation, the PBMCs were maintained in 96 wells and treated with different concentrations of Peptide 14 (1.56 μM to 150 μM) in order to assess toxicity of Peptide 14 to the PBMCs.
The viability and proliferation of PBMCs were analyzed by MTT assay. Briefly, after 5 days of treatment, the cells were incubated with […] MTT reagent for 4 hours. Then, 100 μL of DMSO was added into each well, and the absorbance was detected at 595 nm. Data was presented as percentage of proliferation/viability normalized to the negative control of untreated PBMCs (100% viability/proliferation).

[7] = test system: human primary fibroblasts isolated from 3 healthy donors; assay: UVB-induced senescence; assay type: cell-based; conditions: 5 μM, 48 hours
Protocol: Cellular senescence may be caused by several different stimuli. In order to assess whether Peptide 14 was effective against UVB-induced and chemically-induced senescence, human primary fibroblasts isolated from 3 healthy donors were used. These cells were cultured in DMEM (Dulbecco's Modified Eagle's Medium) supplemented with 10% v.v. fetal bovine serum (FBS), and 1% v.v. of penicillin/streptomycin solution (1,000 U mL-1). Cells were kept in a 5% CO2, 37° C. and 95% humidity atmosphere. After expansion, these cells were seeded in 96-well plates (4,000 cells per well) and, 6 hours after plating, were submitted to either etoposide (20 μM) treatment for 24 hours, or exposed twice to 0.05 J/cm^2 of UVB radiation. […] After incubation, relative cellular senescence (assessed by the activity of senescence associated β-galactosidase staining relative to untreated control) was analyzed and plotted in column graphs. ATRX foci were also assessed following ATRX immunofluorescence staining. Graphs were built using the average ATRX foci detected per nuclei. […] Data was analyzed using with either t-test or ANOVA followed by a Bonferroni post-hoc test. Statistical significance was determined as p-values equal or lower than 0.05 (FIG. 6).

[8] = test system: Caenorhabditis elegans; assay: C. elegans healthspan and lifespan; assay type: in vivo; conditions: at the concentrations tested (1 μM, 2 μM)
Protocol: Senotherapeutic strategies can be linked to healthspan and lifespan extension in vivo. In order to assess whether Peptide 14 promotes extended healthspan and lifespan, Caenorhabditis elegans worms were used. Peptide 14 was added in the worm media (M9 buffer media) at different concentrations of 1 μM or 2 μM. Negative control worms received vehicle only. Two healthspan parameters were assessed i) pharyngeal pumping and ii) worm movement. Lifespan was also determined. For pharyngeal pumping analysis, 15 worms had their pharynx movement (pumping) observed daily and counted for 20 seconds. This experiment was repeated 3 times, by 2 different blind observers, employing different populations of animals at different days. Statistical difference was detected by analyzing each individual time point by One-Way ANOVA and Dunnet's post hoc test. All groups were compared with the H2O group. For worm movement analysis, the basic movement of C. elegans, also called thrashing, was measured daily for 15 worms. […] Statistical difference was detected by analyzing each individual time point by One-Way ANOVA and Dunnet's post hoc, and all groups were compared with the H2O group. […] The average lifespan was measured. Statistical difference was detected by analyzing each individual time point by One-Way ANOVA and Dunnet's post hoc, and all groups were compared with the H2O group (FIG. 15).

[9] = test system: U-937 macrophages; conditions: 3.12 μM, absence or presence of 0.5 μg/mL LPS
From the text: In some cases, monocytes and macrophages may be involved in inflammation of various skin disorders. In order to assess the effect of Peptide 14 on inflammation, an in vitro model of inflammation using monocytes and macrophages was used to study the effect of direct culture of the Peptide 14 with such cells. Cells from the U-937 cell line (Banco de Células do Rio de Janeiro—BCRJ cat. 0242) were used for experiments. According to BCRJ, the U-937 cell line was derived by Sundstrom and Nilsson in 1974 from malignant cells obtained from the pleural effusion of a patient with histiocytic lymphoma. Also, studies since 1979 have shown that U-937 cells can be induced to terminal monocytic differentiation by supernatants from human mixed lymphocyte cultures or phorbol myristic acid (PMA) stimulation.

SA B-galactosidase staining in UVB-exposed samples [2]: decreased staining
relative mRNA Ki-67, dermal layer, vs RA-treated samples [4]: lower; also recorded: similar
relative mRNA Ki-67, epidermal layer, vs RA-treated samples [4]: higher
Sequence: ATAKAWLKGI [Peptide 13]
pAkt S473, dermal samples [1]: decreased
mean of histology scores (maximum 28) [3]: 23.44
relative mRNA BLIMP1, epidermal layer, vs RA-treated samples [4]: lower
relative mRNA HAS2, dermal layer, vs RA-treated samples [4]: higher
relative mRNA IL-8, dermal layer, vs RA-treated samples [4]: lower
relative mRNA IL-8, epidermal layer, vs RA-treated samples [4]: lower
relative mRNA MMP1, dermal layer, vs RA-treated samples [4]: lower
relative mRNA ZIC1 vs RA-treated samples [4]: similar
relative mRNA ZYG11B, epidermal layer, vs RA-treated samples [4]: lower
relative mRNA p16, dermal layer, vs RA-treated samples [4]: lower
relative mRNA p16, epidermal layer, vs RA-treated samples [4]: lower

Sequence: ETAKHWLKGI [Peptide 14, ETAKHWLKGI]
cell proliferation vs untreated control [5]: No significant differences
cell toxicity to PBMCs [6]: nor any detectable cell toxicity
cell viability vs untreated control PBMCs [6]: did not result in lower cell viabilities
cell number after UVB [7]: did not significantly alter cell number
toxicity to C. elegans (worm movement) [8]: not toxic
cell toxicity to U-937 macrophages [9]: nor any detectable cell toxicity
cell viability vs untreated control U-937 macrophages [9]: did not result in lower cell viabilities
